Results from patent US20240000872A1, “NOVEL BACTERIOPHAGE THAT LYSES ACINETOBACTER GENUS BACTERIA HAVING RESISTANCE TO ANTIBIOTICS” (priority 2020, published 2024).

Test system: Acinetobacter baumannii strains
Experiment: Antibiotic susceptibility test (CLSI disk diffusion test method, read per CLSI 2016)
Format: cell-based
Set-up: antibiotic susceptibility test value / susceptibility test value (number given before S/I/R) / antibiotic susceptibility value: unit not given here
Experimental: Strain identification was performed using a kit such as AT 32 GN system (bioMérieux, Marcy l'Etoile, France). […] In Table 2 below, S, I, and R are the results obtained by evaluating susceptibility to the antibacterial agents, in which ‘S’ means susceptible, ‘I’ means intermediate, and ‘R’ means resistant.
Strain identification was performed using a kit such as ATB 32 GN system (bioMédrieux, Marcy l'Etoile, France). […] In Table 6 below, S, I, and R are the results obtained by evaluating susceptibility to the antibacterial agents, in which ‘S’ means susceptible, ‘I’ means intermediate, and ‘R’ means resistant.
Strain identification was performed using a kit such as ATB 32 GN system (bioMérieux, Marcy l'Etoile, France). […] In Table 10 below, S, I, and R are the results obtained by evaluating susceptibility to the antibacterial agents, in which ‘S’ means susceptible, T means intermediate, and ‘R’ means resistant.

cortrimoxazole
antibiotic susceptibility class (host strain YMC14/01/C29): R | antibiotic susceptibility test value (host strain YMC14/01/C29): 320 | antibiotic susceptibility class (host strain YMC14/01/IP122): S | antibiotic susceptibility test value (host strain YMC14/01/IP122): 20 | antibiotic susceptibility class (host strain YMC14/01/L8): R | antibiotic susceptibility test value (host strain YMC14/01/L8): 320 | antibiotic susceptibility class (host strain YMC14/01/P31): R | antibiotic susceptibility test value (host strain YMC14/01/P31): 160 | antibiotic susceptibility class (host strain YMC14/01/P117): R | antibiotic susceptibility test value (host strain YMC14/01/P117): 160 | antibiotic susceptibility class (host strain YMC14/01/P224): R | antibiotic susceptibility test value (host strain YMC14/01/P224): 320 | antibiotic susceptibility class (host strain YMC14/01/P727): R | antibiotic susceptibility test value (host strain YMC14/01/P727): 320 | antibiotic susceptibility class (host strain YMC14/01/P728): R | antibiotic susceptibility test value (host strain YMC14/01/P728): 160 | antibiotic susceptibility class (host strain YMC14/01/R130): R | antibiotic susceptibility test value (host strain YMC14/01/R130): 320 | antibiotic susceptibility class (host strain YMC14/01/R160): R | antibiotic susceptibility test value (host strain YMC14/01/R160): 320 | antibiotic susceptibility class (host strain YMC14/01/R198): R | antibiotic susceptibility test value (host strain YMC14/01/R198): 320 | antibiotic susceptibility class (host strain YMC14/01/R257): R | antibiotic susceptibility test value (host strain YMC14/01/R257): 320 | antibiotic susceptibility class (host strain YMC14/01/R270): R | antibiotic susceptibility test value (host strain YMC14/01/R270): 320 | antibiotic susceptibility class (host strain YMC14/01/R324): R | antibiotic susceptibility test value (host strain YMC14/01/R324): 160 | antibiotic susceptibility class (host strain YMC14/01/R443): R | antibiotic susceptibility test value (host strain YMC14/01/R443): 320 | antibiotic susceptibility class (host strain YMC14/01/R451): R | antibiotic susceptibility test value (host strain YMC14/01/R451): 320 | antibiotic susceptibility class (host strain YMC14/01/R560): R | antibiotic susceptibility test value (host strain YMC14/01/R560): 160 | antibiotic susceptibility class (host strain YMC14/01/R617): R | antibiotic susceptibility test value (host strain YMC14/01/R617): 320 | antibiotic susceptibility class (host strain YMC14/01/R671): R | antibiotic susceptibility test value (host strain YMC14/01/R671): 320 | antibiotic susceptibility class (host strain YMC14/01/R732): R | antibiotic susceptibility test value (host strain YMC14/01/R732): 320 | antibiotic susceptibility class (host strain YMC14/01/R767): R | antibiotic susceptibility test value (host strain YMC14/01/R767): 160 | antibiotic susceptibility class (host strain YMC14/01/R904): S | antibiotic susceptibility test value (host strain YMC14/01/R904): 20 | antibiotic susceptibility class (host strain YMC14/01/R905): R | antibiotic susceptibility test value (host strain YMC14/01/R905): 320 | antibiotic susceptibility class (host strain YMC14/01/R921): S | antibiotic susceptibility test value (host strain YMC14/01/R921): 40 | antibiotic susceptibility class (host strain YMC14/01/R941): R | antibiotic susceptibility test value (host strain YMC14/01/R941): 320 | antibiotic susceptibility class (host strain YMC14/01/R958): R | antibiotic susceptibility test value (host strain YMC14/01/R958): 320 | antibiotic susceptibility class (host strain YMC14/01/R1006): R | antibiotic susceptibility test value (host strain YMC14/01/R1006): 320 | antibiotic susceptibility class (host strain YMC14/01/R1199): R | antibiotic susceptibility test value (host strain YMC14/01/R1199): 160 | antibiotic susceptibility class (host strain YMC14/01/R1659): R | antibiotic susceptibility test value (host strain YMC14/01/R1659): 320 | antibiotic susceptibility class (host strain YMC14/01/R1722): R | antibiotic susceptibility test value (host strain YMC14/01/R1722): 320 | antibiotic susceptibility class (host strain YMC14/01/R1752): S | antibiotic susceptibility test value (host strain YMC14/01/R1752): 20 | antibiotic susceptibility class (host strain YMC14/01/R2429): R | antibiotic susceptibility test value (host strain YMC14/01/R2429): 160 | antibiotic susceptibility class (host strain YMC14/01/R2572): R | antibiotic susceptibility test value (host strain YMC14/01/R2572): 320 | antibiotic susceptibility class (host strain YMC14/01/R2855): R | antibiotic susceptibility test value (host strain YMC14/01/R2855): 320 | antibiotic susceptibility class (host strain YMC14/01/R2945): R | antibiotic susceptibility test value (host strain YMC14/01/R2945): 160 | antibiotic susceptibility class (host strain YMC14/01/R3007): S | antibiotic susceptibility test value (host strain YMC14/01/R3007): 20 | antibiotic susceptibility class (host strain YMC14/01/R3129): S | antibiotic susceptibility test value (host strain YMC14/01/R3129): 20 | antibiotic susceptibility class (host strain YMC14/01/R3317): R | antibiotic susceptibility test value (host strain YMC14/01/R3317): 160 | antibiotic susceptibility class (host strain YMC14/01/R3474): R | antibiotic susceptibility test value (host strain YMC14/01/R3474): 160 | antibiotic susceptibility class (host strain YMC14/01/R3574): R | antibiotic susceptibility test value (host strain YMC14/01/R3574): 160 | antibiotic susceptibility class (host strain YMC14/01/U313): R | antibiotic susceptibility test value (host strain YMC14/01/U313): 320 | antibiotic susceptibility class (host strain YMC14/01/U318): R | antibiotic susceptibility test value (host strain YMC14/01/U318): 320 | antibiotic susceptibility class (host strain YMC14/02/L18): R | antibiotic susceptibility test value (host strain YMC14/02/L18): 160 | antibiotic susceptibility class (host strain YMC14/02/P47): R | antibiotic susceptibility test value (host strain YMC14/02/P47): 320 | antibiotic susceptibility class (host strain YMC14/02/R1860): R | antibiotic susceptibility test value (host strain YMC14/02/R1860): 320 | antibiotic susceptibility class (host strain YMC14/02/R2417): R | antibiotic susceptibility test value (host strain YMC14/02/R2417): 320 | antibiotic susceptibility class (host strain YMC14/02/R2599): S | antibiotic susceptibility test value (host strain YMC14/02/R2599): 20 | antibiotic susceptibility class (host strain YMC14/02/R2668): R | antibiotic susceptibility test value (host strain YMC14/02/R2668): 320 | antibiotic susceptibility class (host strain YMC14/02/R2758): R | antibiotic susceptibility test value (host strain YMC14/02/R2758): 320 | antibiotic susceptibility class (host strain YMC14/02/R2781): R | antibiotic susceptibility test value (host strain YMC14/02/R2781): 160 | antibiotic susceptibility class (host strain YMC14/02/R3106): R | antibiotic susceptibility test value (host strain YMC14/02/R3106): 320 | antibiotic susceptibility class (host strain YMC14/02/R3419): R | antibiotic susceptibility test value (host strain YMC14/02/R3419): 320 | antibiotic susceptibility class (host strain YMC14/02/U1607): S | antibiotic susceptibility test value (host strain YMC14/02/U1607): 20 | antibiotic susceptibility class (host strain YMC14/03/L9): R | antibiotic susceptibility test value (host strain YMC14/03/L9): 160 | antibiotic susceptibility class (host strain YMC14/03/P471): S | antibiotic susceptibility test value (host strain YMC14/03/P471): 20 | antibiotic susceptibility class (host strain YMC14/03/R122): S | antibiotic susceptibility test value (host strain YMC14/03/R122): 20 | antibiotic susceptibility class (host strain YMC14/03/R217): R | antibiotic susceptibility test value (host strain YMC14/03/R217): 160 | antibiotic susceptibility class (host strain YMC14/03/R380): R | antibiotic susceptibility test value (host strain YMC14/03/R380): 320 | antibiotic susceptibility class (host strain YMC14/03/R618): S | antibiotic susceptibility test value (host strain YMC14/03/R618): 20 | antibiotic susceptibility class (host strain YMC14/03/R2144): R | antibiotic susceptibility test value (host strain YMC14/03/R2144): 160 | antibiotic susceptibility class (host strain YMC14/03/U4616): R | antibiotic susceptibility test value (host strain YMC14/03/U4616): 160 | antibiotic susceptibility class (host strain YMC14/04/R1078): S | antibiotic susceptibility test value (host strain YMC14/04/R1078): 20 | antibiotic susceptibility class (host strain YMC14/04/R1080): S | antibiotic susceptibility test value (host strain YMC14/04/R1080): 20 | antibiotic susceptibility S/I/R (host strain YMC14/06/R2359): R | antibiotic susceptibility value (host strain YMC14/06/R2359): 320 | susceptibility category (S/I/R) (host strain YMC14/06/R2359): R | susceptibility test value (number given before S/I/R) (host strain YMC14/06/R2359): 320 | antibiotic susceptibility S/I/R (host strain YMC14/08/R1169): R | antibiotic susceptibility value (host strain YMC14/08/R1169): 320 | susceptibility category (S/I/R) (host strain YMC14/08/R1169): R | susceptibility test value (number given before S/I/R) (host strain YMC14/08/R1169): 320 | antibiotic susceptibility S/I/R (host strain YMC14/08/T90): R | antibiotic susceptibility value (host strain YMC14/08/T90): 320 | susceptibility category (S/I/R) (host strain YMC14/08/T90): R | susceptibility test value (number given before S/I/R) (host strain YMC14/08/T90): 320 | antibiotic susceptibility S/I/R (host strain YMC15/02/R436): R | antibiotic susceptibility value (host strain YMC15/02/R436): 320 | susceptibility category (S/I/R) (host strain YMC15/02/R436): R | susceptibility test value (number given before S/I/R) (host strain YMC15/02/R436): 320 | antibiotic susceptibility S/I/R (host strain YMC15/02/T28): R | antibiotic susceptibility value (host strain YMC15/02/T28): 320 | susceptibility category (S/I/R) (host strain YMC15/02/T28): R | susceptibility test value (number given before S/I/R) (host strain YMC15/02/T28): 320 | antibiotic susceptibility S/I/R (host strain YMC15/03/R1604): R | antibiotic susceptibility value (host strain YMC15/03/R1604): 320 | susceptibility category (S/I/R) (host strain YMC15/03/R1604): R | susceptibility test value (number given before S/I/R) (host strain YMC15/03/R1604): 320 | antibiotic susceptibility S/I/R (host strain YMC15/09/R1869): R | antibiotic susceptibility value (host strain YMC15/09/R1869): 320 | susceptibility category (S/I/R) (host strain YMC15/09/R1869): R | susceptibility test value (number given before S/I/R) (host strain YMC15/09/R1869): 320 | antibiotic susceptibility S/I/R (host strain YMC16/01/P11): R | antibiotic susceptibility value (host strain YMC16/01/P11): 320 | susceptibility category (S/I/R) (host strain YMC16/01/P11): R | susceptibility test value (number given before S/I/R) (host strain YMC16/01/P11): 320 | antibiotic susceptibility S/I/R (host strain YMC16/01/R123): R | antibiotic susceptibility value (host strain YMC16/01/R123): 160 | susceptibility category (S/I/R) (host strain YMC16/01/R123): R | susceptibility test value (number given before S/I/R) (host strain YMC16/01/R123): 160 | antibiotic susceptibility S/I/R (host strain YMC16/01/R198): R | antibiotic susceptibility value (host strain YMC16/01/R198): 160 | susceptibility category (S/I/R) (host strain YMC16/01/R198): R | susceptibility test value (number given before S/I/R) (host strain YMC16/01/R198): 160 | antibiotic susceptibility S/I/R (host strain YMC16/01/R353): R
